Results on 42 molecules are retold here after US20110071158A1, “NEW COMPOUNDS” (BOEHRINGER INGELHEIM INTERNATIONAL GMBH, priority 2009, published 2011).

The structures appear in SMILES notation.

For this assay, the target named is T1, PTK2 enzyme (Homo sapiens, UniProt Q05397).
T1 construct: purchased Invitrogen PV3832
T1 sequence (Q05397 whole entry): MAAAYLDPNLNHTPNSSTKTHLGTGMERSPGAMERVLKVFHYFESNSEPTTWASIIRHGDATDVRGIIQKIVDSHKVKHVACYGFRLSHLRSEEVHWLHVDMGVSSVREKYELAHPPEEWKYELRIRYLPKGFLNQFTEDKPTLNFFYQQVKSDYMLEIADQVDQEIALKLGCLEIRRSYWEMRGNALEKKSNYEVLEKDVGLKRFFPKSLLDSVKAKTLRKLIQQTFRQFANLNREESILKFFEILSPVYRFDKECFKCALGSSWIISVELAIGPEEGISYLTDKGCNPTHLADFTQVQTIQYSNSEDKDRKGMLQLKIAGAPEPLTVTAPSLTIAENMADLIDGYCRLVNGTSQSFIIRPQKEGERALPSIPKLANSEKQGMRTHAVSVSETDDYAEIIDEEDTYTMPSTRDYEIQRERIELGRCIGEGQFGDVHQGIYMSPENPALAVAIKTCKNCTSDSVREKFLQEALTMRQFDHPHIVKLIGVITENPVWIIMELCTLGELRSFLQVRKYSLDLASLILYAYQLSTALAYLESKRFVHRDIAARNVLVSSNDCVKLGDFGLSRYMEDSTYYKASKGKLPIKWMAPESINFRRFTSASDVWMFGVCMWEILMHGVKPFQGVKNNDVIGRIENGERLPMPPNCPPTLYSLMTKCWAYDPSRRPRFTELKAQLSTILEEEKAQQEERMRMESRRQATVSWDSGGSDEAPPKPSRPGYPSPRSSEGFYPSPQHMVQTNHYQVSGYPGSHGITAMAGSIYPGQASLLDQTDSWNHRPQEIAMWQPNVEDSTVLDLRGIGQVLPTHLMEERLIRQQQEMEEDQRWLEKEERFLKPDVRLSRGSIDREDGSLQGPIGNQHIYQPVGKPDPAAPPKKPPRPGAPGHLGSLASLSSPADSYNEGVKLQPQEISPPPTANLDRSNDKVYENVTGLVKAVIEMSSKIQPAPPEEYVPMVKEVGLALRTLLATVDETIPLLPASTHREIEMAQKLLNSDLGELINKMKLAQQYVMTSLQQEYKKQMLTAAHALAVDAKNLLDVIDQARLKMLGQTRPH
Nature of the assay: PTK2 enzyme test, Assay 1 (DELFIA, poly-Glu-Tyr substrate, antibody PT60). The format is biochemical. The following applies: Assay 1 (values without *); 1 h pre-incubation, 2% DMSO. The procedure: This test uses active PTK2 enzyme (Invitrogen Code PV3832) and poly-Glu-Tyr (4:1, Sigma P-0275) as the kinase substrate. The kinase activity is detected through the phosphorylation of the substrate in a DELFIA™ assay. The phosphorylated substrate is detected with the europium-labelled phosphotyrosine antibody PT60 (Perkin Elmer, No.: AD00400).
In order to determine concentration-activity curves with PTK2-inhibitors the compounds are serially diluted in 10% DMSO/H2O and 10 μL of each dilution are placed in each well of a 96-well microtitre plate (clear plate with a U-shaped base, Greiner No. 650101) (the inhibitors are tested in duplicates) and mixed with 10 μL/well of PTK2 kinase (0.01 μg/well). PTK2 kinase has been correspondingly diluted beforehand with kinase dilution buffer (20 mM TRIS/HCl pH 7.5, 0.1 mM EDTA, 0.1 mM EGTA, 0.286 mM sodium orthovanadate, 10% glycerol with the addition of freshly prepared BSA (fraction V, 1 mg/mL) and DTT (1 mM)). The test compound and the PTK2 kinase are pre-incubated for 1 h at RT and shaken at 500 revolutions per min. The reaction is started by the addition of 10 μL/well poly (Glu,Tyr) substrate (25 μg/well poly (Glu, Tyr), 0.05 μg/well biotinylated poly (Glu,Tyr) dissolved in 250 mM TRIS/HCl pH 7.5, 9 mM DTT)—the final concentration of DMSO is 2%. Then 20 μL of ATP Mix (30 mM TRIS/HCl pH 7.5, 0.02% Brij, 0.2 mM sodium orthovanadate, 10 mM magnesium acetate, 0.1 mM EGTA, 1× phosphatase inhibitor cocktail 1 (Sigma, No.: P2850), 50 μM ATP (Sigma, No.: A3377; 15 mM stock solution)) are added. After 1 h of kinase reaction (the plates are shaken at 500 rpm), the reaction is stopped by the addition of 12 μL/well 100 mM EDTA, pH 8.0 and shaken for a further 5 min at RT (500 rpm). 55 μL of the reaction mixture are transferred into a streptavidin plate (Strepta Well High Bind (transparent, 96-well) made by Roche, No.: 11989685001) and incubated for 1 h at RT (shaking at 500 rpm). Then the microtitre plate is washed three times with 200 μL/well D-PBS (Invitrogen, No. 14190). 100 μL of a solution containing DELFIA Eu-N1 Anti-Phosphotyrosine PT60 antibody (Perkin Elmer, No.: AD0040, diluted 1:2000 in DELFIA test buffer (Perkin Elmer, No.: 1244-111)) is then added and the mixture is incubated for 1 h at RT (shaking at 500 rpm). Then the plate is washed three times with 200 μL/well DELFIA washing buffer (Perkin Elmer, No.: 1244-114), 200 μL/well strengthening solution (Perkin Elmer, No.: 1244-105) are added and the mixture is incubated for 10 min at RT (shaking at 300 rpm).
The time-delayed europium fluorescence is then measured in a microtitre plate reader (VICTOR^3, Perkin Elmer). […] Wells that contain test buffer instead of enzyme are used as a control of the background kinase activity.
The IC50 values are determined from analyses of the concentration activity by iterative calculation with the aid of a sigmoid curve analysis algorithm (FIFTY, based on Graph PAD Prism Version 3.03) with a variable Hill coefficient.
The IC50 is the concentration at which inhibition is half-maximal. A high value points to weaker potency in that assay. `CNC(=O)c1ccc(Nc2ncc(C(F)(F)F)c(N[C@@H]3CCCC[C@H]3NC(C)=O)n2)c(OC)c1` [Example I-6] showed an IC50 of 4 nM.

In turn, `COCC(=O)N[C@@H]1CCCC[C@H]1Nc1nc(Nc2ccc(N3CCN(C)CC3)cc2OC)ncc1C(F)(F)F` [Example I-31] returned an IC50 of 5 nM.

`COc1cc(C(=O)NC2CCN(C)CC2)ccc1Nc1ncc(C(F)(F)F)c(N[C@H]2CCCC[C@@H]2NC(C)=O)n1` [Example I-35]: half-maximal inhibition (IC50) was put at 81 nM. Against the preceding molecule, the IC50 is about 16-fold higher.

For `COc1cc(C(=O)NC2CCN(C)CC2)ccc1Nc1ncc(C(F)(F)F)c(N[C@@H]2CCCC[C@H]2NC(=O)NC(C)(C)C)n1` [Example I-18], the IC50 was 46 nM.

`COc1cc(C(=O)NOCCN(C)C)ccc1Nc1ncc(C(F)(F)F)c(N[C@@H]2CCCC[C@H]2N(C)S(C)(=O)=O)n1` [Example I-132] registered an IC50 of 0.93 nM. Against the preceding molecule, the IC50 is about 49-fold lower.

In turn, `CCC(=O)N(C)[C@@H]1CCCC[C@H]1Nc1nc(Nc2ccc(C(=O)NC3CCN(C)CC3)cc2OC)ncc1C(F)(F)F` [Example I-81] had an IC50 of 3 nM.

For `COc1cc(C(=O)NCCN(C)C)ccc1Nc1ncc(Br)c(N[C@@H]2CCCC[C@H]2NC(C)=O)n1` [Example I-47], half-maximal inhibition (IC50) was put at 0.96 nM. This IC50 lies about 3.1-fold lower than the previous one.

`COc1ccc(Nc2ncc(Cl)c(N[C@@H]3CCCC[C@H]3NC(C)=O)n2)c(OC)c1` [Example I-67]: the IC50 is 10 nM.

In turn, `CCN1CCC(NC(=O)c2ccc(Nc3ncc(Br)c(N[C@@H]4CCCC[C@H]4NC(C)=O)n3)c(OC)c2)CC1` [Example I-51] came in with an IC50 of 1 nM.

Molecule `CCNC(=O)c1ccc(Nc2ncc(C(F)(F)F)c(N[C@@H]3CCCC[C@H]3NC(C)=O)n2)c(OC)c1` [Example I-7] had an IC50 of 3 nM.

Regarding `CNC(=O)c1ccc(Nc2ncc(Br)c(N[C@@H]3CCCC[C@H]3NC(C)=O)n2)c(OC)c1` [Example I-46], the IC50 was 2 nM.

On to `COc1cc(Nc2ncc(C(F)(F)F)c(N[C@@H]3CCCC[C@H]3N(C)S(C)(=O)=O)n2)ccc1C(=O)NC1CCN(C)CC1` [Example I-173], for which the IC50 was determined as 2 nM.

`COc1cc(C(=O)NC2CCN(C)CC2)ccc1Nc1ncc(C(C)C)c(N[C@@H]2CCCC[C@H]2N(C)S(C)(=O)=O)n1` [Example I-175] came in with an IC50 of 0.64 nM.

Consider `COc1cc(C(=O)NC2CCN(C)CC2)ccc1Nc1ncc(C(F)(F)F)c(N[C@@H]2CCCC[C@@H]2N(OC)C(C)=O)n1` [Example I-114], for which 1 nM corresponded to half-maximal inhibition (IC50). This IC50 is about 1.6-fold higher than that of the molecule before.

In the case of `COc1cc(C(=O)NC2CCN(C)CC2)ccc1Nc1ncc(C(F)(F)F)c(N[C@@H]2CCCC[C@H]2NC(C)=O)n1` [Example I-11], the IC50 is 2 nM.

`COc1cc(N2CCN(C)CC2)ccc1Nc1ncc(C(F)(F)F)c(N[C@@H]2CCCC[C@H]2NC(=O)CN(C)C)n1` [Example I-32] yielded an IC50 of 21 nM.

`COc1cc(C(=O)NC2CCOCC2)ccc1Nc1ncc(Cl)c(N[C@@H]2CCCC[C@H]2NC(C)=O)n1` [Example I-60] returned an IC50 of 3 nM.

`COc1ccccc1Nc1ncc(Cl)c(N[C@@H]2CCCC[C@H]2NC(C)=O)n1` [Example I-4, N-{(1R,2R)-2-[5-chloro-2-(2-methoxy-phenylamino)-pyrimidin-4-ylamino]-cyclohexyl}-acetamide]: the IC50 amounted to 9 nM.

On to `COCC(=O)N[C@@H]1CCCC[C@H]1Nc1nc(Nc2ccc(C(=O)NC3CCN(C)CC3)cc2OC)ncc1C(F)(F)F` [Example I-21], for which the IC50 was 4 nM. Compared with the last molecule, the IC50 is about 2.2-fold lower.

Consider `COc1cc(C(=O)NC2CCN(C)CC2)ccc1Nc1ncc(C(F)(F)F)c(N[C@@H]2CCCC[C@H]2NC(=O)C(C)C)n1` [Example I-12], for which the IC50 was 3 nM. The IC50 values of the last two molecules are within 1.5-fold of each other.

`COc1cc(N2CCN(C)CC2)ccc1Nc1ncc(C(F)(F)F)c(N[C@@H]2CCCC[C@H]2NC(=O)CC(C)C)n1` [Example I-33] registered an IC50 of 70 nM.

As to `CCS(=O)(=O)N(C)[C@@H]1CCCC[C@H]1Nc1nc(Nc2ccc(C(=O)NCCN(C)C)cc2OC)ncc1C(F)(F)F` [Example I-156], the IC50 worked out at 2 nM.

Molecule `COc1ccc(Nc2ncc(Br)c(N[C@@H]3CCCC[C@H]3NC(C)=O)n2)c(OC)c1` [Example I-54] yielded an IC50 of 4 nM.

As for `COc1cc(C(=O)NC2CCN(C)CC2)c(F)cc1Nc1ncc(C(F)(F)F)c(N[C@@H]2CCCC[C@H]2NS(C)(=O)=O)n1` [Example I-141], the midpoint of inhibition, the IC50, lay at 1 nM.

On to `COc1cc(CN2CCCC2)ccc1Nc1ncc(C(F)(F)F)c(N[C@@H]2CCCC[C@H]2NC(C)=O)n1` [Example I-117], for which the IC50 was 1 nM.

Molecule `CCCC(=O)N[C@@H]1CCCC[C@H]1Nc1nc(Nc2ccc(C(=O)NC3CCN(C)CC3)cc2OC)ncc1C(F)(F)F` [Example I-19] gave an IC50 of 4 nM.

In the case of `COc1cc(C(=O)NC2CCN(C3CC3)CC2)ccc1Nc1ncc(Br)c(N[C@@H]2CCCC[C@H]2NC(C)=O)n1` [Example I-55], half-maximal inhibition (IC50) was put at 2 nM.

`CCN1CCC(NC(=O)c2ccc(Nc3ncc(C(F)(F)F)c(N[C@@H]4CCCC[C@H]4NC(C)=O)n3)c(OC)c2)CC1` [Example I-8] registered an IC50 of 2 nM.

In turn, `COc1cc(C(=O)NC2CCN(C)CC2)ccc1Nc1ncc(C(F)(F)F)c(N[C@@H]2CCCC[C@H]2N(C)C(C)=O)n1` [Example I-82] returned an IC50 of 0.98 nM.

In turn, `COc1cc(N2CCN(C(C)(C)C)CC2)ccc1Nc1ncc(C(F)(F)F)c(N[C@@H]2CCCC[C@H]2N(C)S(C)(=O)=O)n1` [Example I-145] registered a half-maximal inhibitory concentration (IC50) of 3 nM.

As for `COc1cc(C(=O)N(C)C)ccc1Nc1ncc(Br)c(N[C@@H]2CCCC[C@H]2NC(C)=O)n1` [Example I-49], the IC50 came out at 10 nM.

Molecule `COc1cc(C(=O)N[C@@H]2CCCN(C)C2)ccc1Nc1ncc(C(F)(F)F)c(N[C@@H]2CCCC[C@H]2N(C)C(C)=O)n1` [Example I-111] returned an IC50 of 1 nM.

In turn, `CC(=O)Nc1ccc(Nc2ncc(C(F)(F)F)c(N[C@@H]3CCCC[C@H]3N(C)S(C)(=O)=O)n2)cc1C` [Example I-186] gave an IC50 of 4 nM.

Take `COc1cc(C(=O)NC2CCN(C)CC2)ccc1Nc1ncc(C(F)(F)F)c(N[C@@H]2CCCC[C@H]2N(C)C)n1` [Example I-34]: the IC50 stood at 71 nM.

For the molecule `COc1cc(C(=O)NC2CCN(C)CC2)ccc1Nc1ncc(C(F)(F)F)c(N[C@@H]2CCCC[C@H]2N2CCCC2=O)n1` [Example I-97], half-maximal inhibition (IC50) required 2 nM.

`CC(=O)Nc1ccc(Nc2ncc(C(F)(F)F)c(N[C@@H]3CCCC[C@H]3N(C)S(C)(=O)=O)n2)cc1Cl` [Example I-187] showed an IC50 of 6 nM.

For `CCN(CC)C(=O)CN[C@@H]1CCCC[C@H]1Nc1nc(Nc2ccc(C(=O)NC3CCN(C)CC3)cc2OC)ncc1C(F)(F)F` [Example I-24], the IC50 was determined as 24 nM.

In the case of `CNCc1ccc(Nc2ncc(C(F)(F)F)c(N[C@@H]3CCCC[C@H]3NC(=O)COC)n2)c(OC)c1` [Example I-78], the IC50 stood at 4 nM.

Take `COc1cc(C(=O)NC2CCN(C)CC2)c(F)cc1Nc1ncc(C(F)(F)F)c(N[C@@H]2CCCC[C@H]2NC(=O)C(C)C)n1` [Example I-121]: the 50% inhibitory concentration (IC50) worked out at 3 nM.

In turn, `COc1cc(C(=O)NC2CCN(C)CC2)c(F)cc1Nc1ncc(C(F)(F)F)c(N[C@@H]2CCCC[C@H]2NCC(=O)N(C)OC)n1` [Example I-27] displayed an IC50 of 6 nM. This IC50 lies about 2-fold higher than the previous one.

The molecule `COc1cc(C(=O)N[C@H]2CCCN(C)C2)ccc1Nc1ncc(C(F)(F)F)c(N[C@@H]2CCCC[C@H]2N(C)C(C)=O)n1` [Example I-107] registered an IC50 of 1 nM. Compared with the last molecule, the IC50 is about 6-fold lower.

In turn, `CCN1CCC(NC(=O)c2ccc(Nc3ncc(C(F)(F)F)c(N[C@H]4CCCC[C@@H]4NC(C)=O)n3)c(OC)c2)CC1` [Example I-38] registered an IC50 of 400 nM.
